In ChEMBL document CHEMBL1125512, “Synthesis and antiviral activity of methyl derivatives of 9-[2-(phosphonomethoxy)ethyl]guanine” (J Med Chem, 1992):

Legend:
[1] = Toxicity in vitro against CEM cells by XTT assay; type: cell-based; details: human, CCRF-CEM (CEM) cells; read-out: TC50 (the source's name)
[2] = system: CCRF-CEM; experiment: In vitro anti -HIV activity tested against CEM cells infected with HIV by XTT assay; type: functional, cell-based; details: Homo sapiens
[3] = Selectivity Index is the ratio of the TC50 to EC50; details: read-out: Selectivity index
[4] = In vitro cellular toxicity in vero cells; type: cell-based; details: read-out: TC50 (the source's name)
[5] = system: Vero; experiment: In vitro antiherpesvirus activity against vero cells infected with HSV-2(G strain)[plaque reduction assay]; type: functional, cell-based; details: Chlorocebus sabaeus
[6] = system: CCRF-CEM; experiment: In vitro CEM cell growth inhibition by measuring the number of cells after treatment for 72 hours; type: functional; details: Homo sapiens
[7] = system: MRC5; experiment: In vitro antiherpesvirus activity against MRC-5 cells infected with HCMV (AD-169 strain); type: functional, cell-based; details: Homo sapiens
[8] = In vitro cellular toxicity in MRC-5 cells; type: cell-based, MRC5; details: human, read-out: TC50 (the source's name)
[9] = In vitro cellular toxicity in WI-38 cells; type: cell-based; details: human, read-out: TC50 (the source's name)

Compound: Cc1nc2c(O)nc(N)nc2n1CCOCP(=O)(O)O
- CC50 [1]: > 100 µM
- EC50 [2]: > 100 µM
- selectivity ratio [3]: > 1
- CC50 ([4]; chlorocebus sabaeus): > 330 µM
- IC50 [5]: 172 µM

Compound: C[C@H](Cn1cnc2c(O)nc(N)nc21)OCP(=O)(O)O
- CC50 [6]: 180 µM
- CC50 [1]: > 500 µM
- EC50 [2]: 1 µM
- IC50 [7]: 16 µM
- CC50 [8]: > 330 µM
- selectivity ratio [3]: > 500
- CC50 ([4]; chlorocebus sabaeus): > 330 µM
- IC50 [5]: 82 µM

Compound: C[C@@H](Cn1cnc2c(O)nc(N)nc21)OCP(=O)(O)O
- CC50 [6]: 12 µM
- CC50 [1]: 300 µM
- EC50 [2]: 12 µM
- IC50 [7]: 16 µM
- CC50 [8]: > 330 µM
- selectivity ratio [3]: 25
- CC50 ([4]; chlorocebus sabaeus): > 330 µM
- IC50 [5]: 43 µM

Compound: Nc1nc2c(ncn2COC(CO)CO)c(=O)[nH]1 [GANCICLOVIR]
- IC50 [7]: 4 µM

Compound: Nc1ncnc2c1ncn2CCOCP(=O)(O)O [ADEFOVIR]
- CC50 [1]: > 500 µM
- EC50 [2]: 18 µM
- selectivity ratio [3]: > 27

Compound: CC(COCP(=O)(O)O)n1cnc2c(O)nc(N)nc21 (stereo not drawn)
- CC50 [1]: 250 µM
- EC50 [2]: 5 µM
- IC50 [7]: 1.3 µM
- CC50 [8]: > 300 µM
- selectivity ratio [3]: 25
- CC50 ([4]; chlorocebus sabaeus): 200 µM
- IC50 [5]: 11 µM

Compound: CC(C)(Cn1cnc2c(O)nc(N)nc21)OCP(=O)(O)O
- CC50 [1]: > 100 µM
- EC50 [2]: 2.6 µM
- IC50 [7]: > 300 µM
- CC50 [9]: > 330 µM
- selectivity ratio [3]: > 38
- IC50 [5]: > 300 µM

Compound: Nc1nc2c(ncn2CCOCP(=O)(O)O)c(=O)[nH]1 [GS-438]
- CC50 [6]: 0.2 µM
- CC50 [1]: 15 µM
- EC50 [2]: 0.2 µM
- IC50 [7]: 0.09 µM
- CC50 [8]: 30 µM
- selectivity ratio [3]: 75
- CC50 [4]: 17 µM
- IC50 [5]: 1.1 µM

Compound: Nc1nc2c(ncn2CC(CO)OCP(=O)(O)O)c(=O)[nH]1 (single isomer, unassigned; form 1)
- CC50 [1]: > 500 µM
- EC50 [2]: 500 µM
- IC50 [7]: 1.6 µM
- CC50 [8]: > 310 µM
- selectivity ratio [3]: > 1
- CC50 ([4]; chlorocebus sabaeus): > 310 µM
- IC50 [5]: 99 µM

Compound: Nc1nc2c(ncn2COCCO)c(=O)[nH]1 [ACYCLOVIR]
- IC50 [5]: 1.2 µM

Compound: CC(OCCn1cnc2c(O)nc(N)nc21)P(=O)(O)O (stereo not drawn)
- CC50 [1]: > 100 µM
- EC50 [2]: > 100 µM
- selectivity ratio [3]: > 1
- CC50 ([4]; chlorocebus sabaeus): > 330 µM
- IC50 [5]: 158 µM

Compound: CC(C)(OCCn1cnc2c(O)nc(N)nc21)P(=O)(O)O
- CC50 ([4]; chlorocebus sabaeus): > 330 µM
- IC50 [5]: > 300 µM

Compound: Nc1nc(O)c2ncn(CC(CO)OCP(=O)(O)O)c2n1 (single isomer, unassigned; form 2)
- CC50 [1]: 350 µM
- EC50 [2]: > 500 µM
- IC50 [7]: 0.8 µM
- CC50 [8]: > 310 µM
- selectivity ratio [3]: < 1
- CC50 ([4]; chlorocebus sabaeus): > 310 µM
- IC50 [5]: 97 µM
